test system: RS4;11 cells; experiment: Cell viability assay (CellTiter-Glo) in RS4;11 cells; format: cell-based; conditions: Homo sapiens, 72 h; RS4;11 cells; cell viability, 3 days, CellTiter-Glo; read-out: IC50
How it was run: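 Three-day compound treatment of RS4;11 ALL cells (5000/well, 3-fold dilution series of 8 or 12 points), with IC50 from a nonlinear least-squares fit to CellTiter-Glo viability data.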

| SMILES | IC50 [µM] |
| --- | --- |
| Cc1ncsc1-c1ccc(CNC(=O)[C@@H]2C[C@@H](O)CN2C(=O)[C@@H](NC(=O)CCCCCCCNC(=O)CN2CCN(c3ccc(Nc4nc5cccc(-c6ccc(S(C)(=O)=O)cc6)n5n4)cc3)CC2)C(C)(C)C)cc1 [JA-124, (2S,4R)-1-((S)-3,3-Dimethyl-2-(8-(2-(4-(4-((5-(4-(methylsulfonyl)phenyl)-[1,2,4]triazolo[1,5-a]pyridin-2-yl)amino)phenyl)piperazin-1-yl)acetamido)octanamido)butanoyl)-4-hydroxy-N-(4-(4-methylthiazol-5-yl)benzyl)pyrrolidine-2-carboxamide] | > 10 |
| Cc1ncsc1-c1ccc(CNC(=O)[C@@H]2C[C@@H](O)CN2C(=O)[C@@H](NC(=O)CCCNC(=O)CN2CCN(c3ccc(Nc4nc5cccc(-c6ccc(S(C)(=O)=O)cc6)n5n4)cc3)CC2)C(C)(C)C)cc1 [JA-125, (2S,4R)-1-((S)-3,3-Dimethyl-2-(4-(2-(4-(4-((5-(4-(methylsulfonyl)phenyl)-[1,2,4]triazolo[1,5-a]pyridin-2-yl)amino)phenyl)piperazin-1-yl)acetamido)butanamido)butanoyl)-4-hydroxy-N-(4-(4-methylthiazol-5-yl)benzyl)pyrrolidine-2-carboxamide] | > 10 |
| Cc1ncsc1-c1ccc(CNC(=O)[C@@H]2C[C@@H](O)CN2C(=O)[C@@H](NC(=O)CNC(=O)CN2CCN(c3ccc(Nc4nc5cccc(-c6ccc(S(C)(=O)=O)cc6)n5n4)cc3)CC2)C(C)(C)C)cc1 [JA-126, (2S,4R)-1-((S)-3,3-Dimethyl-2-(2-(2-(4-(4-((5-(4-(methylsulfonyl)phenyl)-[1,2,4]triazolo[1,5-a]pyridin-2-yl)amino)phenyl)piperazin-1-yl)acetamido)acetamido)butanoyl)-4-hydroxy-N-(4-(4-methylthiazol-5-yl)benzyl)pyrrolidine-2-carboxamide] | > 10 |
| CS(=O)(=O)c1ccc(-c2cccc3nc(Nc4ccc(N5CCN(CC(=O)NCCOCCOCCOCCNc6cccc7c6C(=O)N(C6CCC(=O)NC6=O)C7=O)CC5)cc4)nn23)cc1 (stereo not shown) [JA-127, N-(2-(2-(2-(2-((2-(2,6-Dioxopiperidin-3-yl)-1,3-dioxoisoindolin-4-yl)amino)ethoxy)ethoxy)ethoxy)ethyl)-2-(4-(4-((5-(4-(methylsulfonyl)phenyl)-[1,2,4]triazolo[1,5-a]pyridin-2-yl)amino)phenyl)piperazin-1-yl)acetamide] | > 10 |
| Cc1ncsc1-c1ccc(CNC(=O)[C@@H]2C[C@@H](O)CN2C(=O)[C@@H](NC(=O)CCCCCCCCCCNC(=O)CN2CCN(c3ccc(Nc4nc5cccc(-c6ccc(S(C)(=O)=O)cc6)n5n4)cc3)CC2)C(C)(C)C)cc1 [JA-128, (2S,4R)-1-((S)-3,3-Dimethyl-2-(11-(2-(4-(4-((5-(4-(methylsulfonyl)phenyl)-[1,2,4]triazolo[1,5-a]pyridin-2-yl)amino)phenyl)piperazin-1-yl)acetamido)undecanamido)butanoyl)-4-hydroxy-N-(4-(4-methylthiazol-5-yl)benzyl)pyrrolidine-2-carboxamide] | > 10 |
| CS(=O)(=O)c1ccc(-c2cccc3nc(Nc4ccc(N5CCN(CC(=O)NCCOCCOCCOCCOCCOCCNc6cccc7c6C(=O)N(C6CCC(=O)NC6=O)C7=O)CC5)cc4)nn23)cc1 (stereo not shown) [JA-129, N-(17-((2-(2,6-Dioxopiperidin-3-yl)-1,3-dioxoisoindolin-4-yl)amino)-3,6,9,12,15-pentaoxaheptadecyl)-2-(4-(4-((5-(4-(methylsulfonyl)phenyl)-[1,2,4]triazolo[1,5-a]pyridin-2-yl)amino)phenyl)piperazin-1-yl)acetamide] | > 10 |
| Cc1ncsc1-c1ccc(CNC(=O)[C@@H]2C[C@@H](O)CN2C(=O)[C@@H](NC(=O)CCCCNC(=O)CN2CCN(c3ccc(Nc4nc5cccc(-c6ccc(S(C)(=O)=O)cc6)n5n4)cc3)CC2)C(C)(C)C)cc1 [JA-130, (2S,4R)-1-((S)-3,3-Dimethyl-2-(5-(2-(4-(4-((5-(4-(methylsulfonyl)phenyl)-[1,2,4]triazolo[1,5-a]pyridin-2-yl)amino)phenyl)piperazin-1-yl)acetamido)pentanamido)butanoyl)-4-hydroxy-N-(4-(4-methylthiazol-5-yl)benzyl)pyrrolidine-2-carboxamide] | > 10 |
| Cc1ncsc1-c1ccc(CNC(=O)[C@@H]2C[C@@H](O)CN2C(=O)[C@@H](NC(=O)COCCOCCOCCNC(=O)CN2CCN(c3ccc(Nc4nc5cccc(-c6ccc(S(C)(=O)=O)cc6)n5n4)cc3)CC2)C(C)(C)C)cc1 [JA-131, (2S,4R)-1-((S)-2-(tert-Butyl)-17-(4-(4-((5-(4-(methylsulfonyl)phenyl)-[1,2,4]triazolo[1,5-a]pyridin-2-yl)amino)phenyl)piperazin-1-yl)-4,16-dioxo-6,9,12-trioxa-3,15-diazaheptadecanoyl)-4-hydroxy-N-(4-(4-methylthiazol-5-yl)benzyl)pyrrolidine-2-carboxamide] | > 10 |
| Cc1ncsc1-c1ccc(CNC(=O)[C@@H]2C[C@@H](O)CN2C(=O)[C@@H](NC(=O)COCCNC(=O)CN2CCN(c3ccc(Nc4nc5cccc(-c6ccc(S(C)(=O)=O)cc6)n5n4)cc3)CC2)C(C)(C)C)cc1 [JA-132, (2S,4R)-1-((S)-3,3-Dimethyl-2-(2-(2-(2-(4-(4-((5-(4-(methylsulfonyl)phenyl)-[1,2,4]triazolo[1,5-a]pyridin-2-yl)amino)phenyl)piperazin-1-yl)acetamido)ethoxy)acetamido)butanoyl)-4-hydroxy-N-(4-(4-methylthiazol-5-yl)benzyl)pyrrolidine-2-carboxamide] | > 10 |
| Cc1ncsc1-c1ccc(CNC(=O)[C@@H]2C[C@@H](O)CN2C(=O)[C@@H](NC(=O)CCOCCOCCOCCOCCNC(=O)CN2CCN(c3ccc(Nc4nc5cccc(-c6ccc(S(C)(=O)=O)cc6)n5n4)cc3)CC2)C(C)(C)C)cc1 [JA-133, (2S,4R)-1-((S)-20-(tert-Butyl)-1-(4-(4-((5-(4-(methylsulfonyl)phenyl)-[1,2,4]triazolo[1,5-a]pyridin-2-yl)amino)phenyl)piperazin-1-yl)-2,18-dioxo-6,9,12,15-tetraoxa-3,19-diazahenicosan-21-oyl)-4-hydroxy-N-(4-(4-methylthiazol-5-yl)benzyl)pyrrolidine-2-carboxamide] | > 10 |
| Cc1ncsc1-c1ccc(CNC(=O)[C@@H]2C[C@@H](O)CN2C(=O)[C@@H](NC(=O)COCCOCCNC(=O)CN2CCN(c3ccc(Nc4nc5cccc(-c6ccc(S(C)(=O)=O)cc6)n5n4)cc3)CC2)C(C)(C)C)cc1 [JA-134, (2S,4R)-1-((S)-2-(tert-Butyl)-14-(4-(4-((5-(4-(methylsulfonyl)phenyl)-[1,2,4]triazolo[1,5-a]pyridin-2-yl)amino)phenyl)piperazin-1-yl)-4,13-dioxo-6,9-dioxa-3,12-diazatetradecanoyl)-4-hydroxy-N-(4-(4-methylthiazol-5-yl)benzyl)pyrrolidine-2-carboxamide] | 4.31 |
| Cc1ncsc1-c1ccc(CNC(=O)[C@@H]2C[C@@H](O)CN2C(=O)[C@@H](NC(=O)CCOCCOCCNC(=O)CN2CCN(c3ccc(Nc4nc5cccc(-c6ccc(S(C)(=O)=O)cc6)n5n4)cc3)CC2)C(C)(C)C)cc1 [JA-135, (2S,4R)-1-((S)-14-(tert-Butyl)-1-(4-(4-((5-(4-(methylsulfonyl)phenyl)-[1,2,4]triazolo[1,5-a]pyridin-2-yl)amino)phenyl)piperazin-1-yl)-2,12-dioxo-6,9-dioxa-3,13-diazapentadecan-15-oyl)-4-hydroxy-N-(4-(4-methylthiazol-5-yl)benzyl)pyrrolidine-2-carboxamide] | > 10 |
| Cc1ncsc1-c1ccc(CNC(=O)[C@@H]2C[C@@H](O)CN2C(=O)[C@@H](NC(=O)CCOCCNC(=O)CN2CCN(c3ccc(Nc4nc5cccc(-c6ccc(S(C)(=O)=O)cc6)n5n4)cc3)CC2)C(C)(C)C)cc1 [JA-136, (2S,4R)-1-((S)-3,3-Dimethyl-2-(3-(2-(2-(4-(4-((5-(4-(methylsulfonyl)phenyl)-[1,2,4]triazolo[1,5-a]pyridin-2-yl)amino)phenyl)piperazin-1-yl)acetamido)ethoxy)propanamido)butanoyl)-4-hydroxy-N-(4-(4-methylthiazol-5-yl)benzyl)pyrrolidine-2-carboxamide] | > 10 |
| Cc1ncsc1-c1ccc(CNC(=O)[C@@H]2C[C@@H](O)CN2C(=O)[C@@H](NC(=O)CCOCCOCCOCCNC(=O)CN2CCN(c3ccc(Nc4nc5cccc(-c6ccc(S(C)(=O)=O)cc6)n5n4)cc3)CC2)C(C)(C)C)cc1 [JA-137, (2S,4R)-1-((S)-17-(tert-Butyl)-1-(4-(4-((5-(4-(methylsulfonyl)phenyl)-[1,2,4]triazolo[1,5-a]pyridin-2-yl)amino)phenyl)piperazin-1-yl)-2,15-dioxo-6,9,12-trioxa-3,16-diazaoctadecan-18-oyl)-4-hydroxy-N-(4-(4-methylthiazol-5-yl)benzyl)pyrrolidine-2-carboxamide] | > 10 |
| Cc1ncsc1-c1ccc(CNC(=O)[C@@H]2C[C@@H](O)CN2C(=O)[C@@H](NC(=O)CCOCCOCCOCCOCCOCCNC(=O)CN2CCN(c3ccc(Nc4nc5cccc(-c6ccc(S(C)(=O)=O)cc6)n5n4)cc3)CC2)C(C)(C)C)cc1 [JA-138, (2S,4R)-1-((S)-23-(tert-Butyl)-1-(4-(4-((5-(4-(methylsulfonyl)phenyl)-[1,2,4]triazolo[1,5-a]pyridin-2-yl)amino)phenyl)piperazin-1-yl)-2,21-dioxo-6,9,12,15,18-pentaoxa-3,22-diazatetracosan-24-oyl)-4-hydroxy-N-(4-(4-methylthiazol-5-yl)benzyl)pyrrolidine-2-carboxamide] | > 10 |
| O=C(CN1CCC(n2cc(-c3cnc4cccc(-c5cc(F)c(CN6CCOCC6)c(F)c5)c4n3)cn2)CC1)NCCOCCNc1cccc2c1C(=O)N(C1CCC(=O)NC1=O)C2=O (stereo not shown) [JA-139, 2-[4-[4-[8-[3,5-Difluoro-4-(morpholinomethyl)phenyl]quinoxalin-2-yl]pyrazol-1-yl]-1-piperidyl]-N-[2-[2-[[2-(2,6-dioxo-3-piperidyl)-1,3-dioxo-isoindolin-4-yl]amino]ethoxy]ethyl]acetamide] | > 10 |
